Values quoted from earlier work in US7906154B2, “Compositions and methods for the induction and maintenance of quality sleep” (priority 2006, dated 2011).
Read-outs that look alike come from different tables or passages of the source.

SMILES: COC1=C(OC)C(=O)C(C/C=C(\C)CC/C=C(\C)CC/C=C(\C)CC/C=C(\C)CC/C=C(\C)CC/C=C(\C)CC/C=C(\C)CC/C=C(\C)CC/C=C(\C)CCC=C(C)C)=C(C)C1=O [CoQ10, Coenzyme Q10]
- subjects with a decrease in the sound level of their snoring (during non-REM sleep stages I/II): about 40%
- subjects with a decrease in the sound level of their snoring (during non-REM sleep stages III/IV): about 33%
- subjects with a decrease in the sound level of their snoring (during the REM stage of sleep): about 44%
